According to ChEMBL document CHEMBL1201862, “PubChem BioAssay data set” (2004):
Activity calls are given as the source filed them.

Columns and labels:
[1] = HIV-1 Vif–A3G interaction blockers – biochemical, TR-FRET, GST-Vif 1-94, biotin-A3G peptide, dose response retest, primary screen (AID 1117319); assay type: functional;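 also: TR-FRET signal of purified GST-Vif binding a biotinylated A3G peptide; inhibitors lower the FRET signal by blocking Vif and A3G binding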
Large T antigen = Large T antigen (Simian virus 40, UniProt P03070); assay type: functional, Betapolyomavirus macacae;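 also: Confirmatory-stage PubChem screen for compounds that inhibit SV40 T antigen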
Sequence of Large T antigen (P03070 whole entry): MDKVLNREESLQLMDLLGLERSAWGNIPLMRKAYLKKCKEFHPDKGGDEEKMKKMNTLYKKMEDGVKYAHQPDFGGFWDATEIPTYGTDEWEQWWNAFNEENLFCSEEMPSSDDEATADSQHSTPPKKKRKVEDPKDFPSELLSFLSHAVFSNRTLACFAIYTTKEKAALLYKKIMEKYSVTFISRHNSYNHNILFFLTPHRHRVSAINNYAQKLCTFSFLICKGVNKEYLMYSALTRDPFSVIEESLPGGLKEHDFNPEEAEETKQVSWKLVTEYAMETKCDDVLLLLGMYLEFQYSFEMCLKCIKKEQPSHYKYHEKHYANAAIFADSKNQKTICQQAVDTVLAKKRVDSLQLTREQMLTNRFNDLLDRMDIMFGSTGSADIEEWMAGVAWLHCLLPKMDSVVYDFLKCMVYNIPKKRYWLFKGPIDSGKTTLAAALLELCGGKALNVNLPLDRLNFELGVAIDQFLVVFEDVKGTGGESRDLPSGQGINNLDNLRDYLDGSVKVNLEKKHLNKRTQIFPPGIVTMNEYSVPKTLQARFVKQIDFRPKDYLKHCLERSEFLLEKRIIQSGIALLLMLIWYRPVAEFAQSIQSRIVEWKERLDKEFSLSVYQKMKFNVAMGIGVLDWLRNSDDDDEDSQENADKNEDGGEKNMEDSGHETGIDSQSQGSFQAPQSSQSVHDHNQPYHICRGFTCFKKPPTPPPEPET

[2] = molecular target: T1, Rac GTPase-activating protein 1 (Homo sapiens, UniProt Q9H0H5); test: blockers of MgcRacGAP-driven Rac1 GTP hydrolysis – biochemical, ADP Hunter fluorescence, primary and confirmatory, confirmation (AID 624330); assay type: functional
T1 sequence (Q9H0H5 whole entry): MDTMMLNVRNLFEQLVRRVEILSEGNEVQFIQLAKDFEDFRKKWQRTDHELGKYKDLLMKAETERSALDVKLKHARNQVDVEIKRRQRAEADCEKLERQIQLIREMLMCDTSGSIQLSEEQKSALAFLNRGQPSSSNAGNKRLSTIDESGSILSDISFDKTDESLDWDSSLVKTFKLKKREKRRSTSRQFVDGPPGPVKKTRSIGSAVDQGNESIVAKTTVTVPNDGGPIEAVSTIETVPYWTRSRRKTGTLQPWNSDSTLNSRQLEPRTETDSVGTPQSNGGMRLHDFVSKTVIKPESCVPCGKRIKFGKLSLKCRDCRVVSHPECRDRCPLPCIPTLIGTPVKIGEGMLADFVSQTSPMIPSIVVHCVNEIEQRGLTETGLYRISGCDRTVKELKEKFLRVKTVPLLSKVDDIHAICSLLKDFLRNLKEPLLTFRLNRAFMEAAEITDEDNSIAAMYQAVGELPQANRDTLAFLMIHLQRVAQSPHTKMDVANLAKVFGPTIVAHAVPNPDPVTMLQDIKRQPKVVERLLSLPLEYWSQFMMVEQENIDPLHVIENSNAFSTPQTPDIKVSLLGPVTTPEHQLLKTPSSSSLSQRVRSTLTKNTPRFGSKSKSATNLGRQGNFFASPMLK

[3] = molecular target: T2, Heat shock factor protein 1 (Mus musculus, UniProt P38532); test: decrease of HSF1-responsive luciferase luminescence – cell-based, NIH3T3, dose retest, confirmation (AID 2382); assay type: functional;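 also: NIH3T3 fibroblasts with HSF1-driven luciferase reporter stressed by proteasome inhibitor MG132; luminescence from HSF1-driven luciferase expression after 8 hours of MG132 stress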
T2 sequence (P38532 whole entry): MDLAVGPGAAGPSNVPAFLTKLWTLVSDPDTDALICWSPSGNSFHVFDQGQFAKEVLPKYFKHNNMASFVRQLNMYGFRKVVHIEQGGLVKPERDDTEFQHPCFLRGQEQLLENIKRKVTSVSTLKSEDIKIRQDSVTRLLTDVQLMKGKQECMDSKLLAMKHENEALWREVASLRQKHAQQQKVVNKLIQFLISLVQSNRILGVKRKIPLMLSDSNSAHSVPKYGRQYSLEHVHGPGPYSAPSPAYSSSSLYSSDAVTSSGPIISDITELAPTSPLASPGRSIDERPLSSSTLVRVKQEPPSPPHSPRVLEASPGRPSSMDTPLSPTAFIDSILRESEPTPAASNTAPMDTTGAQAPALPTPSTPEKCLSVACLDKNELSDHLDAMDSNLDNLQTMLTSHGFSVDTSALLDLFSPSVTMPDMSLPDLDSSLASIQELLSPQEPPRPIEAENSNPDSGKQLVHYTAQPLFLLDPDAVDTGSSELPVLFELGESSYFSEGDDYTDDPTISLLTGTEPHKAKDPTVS

[4] = molecular target: T3, Histone-lysine N-methyltransferase NSD2 (Homo sapiens, UniProt O96028); assay type: biochemical
T3 sequence (O96028 whole entry): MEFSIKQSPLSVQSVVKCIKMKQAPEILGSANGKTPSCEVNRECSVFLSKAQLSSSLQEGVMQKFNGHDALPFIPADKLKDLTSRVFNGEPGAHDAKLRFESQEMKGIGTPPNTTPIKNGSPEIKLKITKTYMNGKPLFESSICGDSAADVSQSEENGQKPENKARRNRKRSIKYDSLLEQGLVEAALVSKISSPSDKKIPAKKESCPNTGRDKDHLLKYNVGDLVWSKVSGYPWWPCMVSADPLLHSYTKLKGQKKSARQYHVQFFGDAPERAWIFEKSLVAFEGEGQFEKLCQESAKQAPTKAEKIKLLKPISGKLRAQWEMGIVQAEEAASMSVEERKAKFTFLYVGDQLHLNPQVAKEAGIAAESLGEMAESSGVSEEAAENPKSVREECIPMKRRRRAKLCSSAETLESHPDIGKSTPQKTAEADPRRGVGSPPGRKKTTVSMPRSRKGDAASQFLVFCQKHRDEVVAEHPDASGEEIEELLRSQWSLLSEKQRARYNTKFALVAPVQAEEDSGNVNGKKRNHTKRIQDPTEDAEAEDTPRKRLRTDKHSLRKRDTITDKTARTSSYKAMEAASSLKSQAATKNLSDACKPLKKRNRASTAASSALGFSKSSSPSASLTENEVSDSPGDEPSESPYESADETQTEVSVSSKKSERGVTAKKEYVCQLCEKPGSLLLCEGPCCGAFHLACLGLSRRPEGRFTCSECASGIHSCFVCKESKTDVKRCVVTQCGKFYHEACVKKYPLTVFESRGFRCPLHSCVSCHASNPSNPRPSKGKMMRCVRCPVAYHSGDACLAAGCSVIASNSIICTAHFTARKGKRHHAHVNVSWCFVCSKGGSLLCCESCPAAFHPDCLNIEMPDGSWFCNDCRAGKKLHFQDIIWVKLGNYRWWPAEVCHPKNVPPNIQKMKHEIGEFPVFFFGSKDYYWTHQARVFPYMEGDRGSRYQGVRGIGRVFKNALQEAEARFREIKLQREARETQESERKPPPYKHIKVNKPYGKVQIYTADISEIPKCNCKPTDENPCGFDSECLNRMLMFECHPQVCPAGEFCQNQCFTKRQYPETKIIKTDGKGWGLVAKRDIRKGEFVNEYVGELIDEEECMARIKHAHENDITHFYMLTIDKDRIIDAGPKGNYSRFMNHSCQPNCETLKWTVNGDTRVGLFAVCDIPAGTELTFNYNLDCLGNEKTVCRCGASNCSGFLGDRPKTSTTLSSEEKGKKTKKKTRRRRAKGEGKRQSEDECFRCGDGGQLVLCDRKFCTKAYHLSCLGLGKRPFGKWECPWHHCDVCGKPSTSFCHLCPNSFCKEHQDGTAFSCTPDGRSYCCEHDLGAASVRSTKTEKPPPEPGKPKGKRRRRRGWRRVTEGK

[5] = molecular target: T4, DNA repair protein RAD52 homolog (Homo sapiens, UniProt P43351); assay type: functional, biochemical
T4 sequence (P43351 whole entry): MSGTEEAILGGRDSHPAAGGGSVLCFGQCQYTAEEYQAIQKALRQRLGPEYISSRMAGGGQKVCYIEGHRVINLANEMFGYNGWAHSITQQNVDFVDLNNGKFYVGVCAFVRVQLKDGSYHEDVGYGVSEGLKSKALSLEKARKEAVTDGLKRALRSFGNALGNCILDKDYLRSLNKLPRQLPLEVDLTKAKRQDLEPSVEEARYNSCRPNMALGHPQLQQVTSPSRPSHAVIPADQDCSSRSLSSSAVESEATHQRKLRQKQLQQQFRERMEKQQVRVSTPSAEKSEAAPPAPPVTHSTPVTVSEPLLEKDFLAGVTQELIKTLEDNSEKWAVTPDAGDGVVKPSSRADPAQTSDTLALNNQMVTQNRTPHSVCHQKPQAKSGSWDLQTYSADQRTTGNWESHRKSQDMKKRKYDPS

[6] = microbe, parasite or virus in culture; assay type: functional; details: Mycobacterium tuberculosis
Streptokinase A = molecular target: T5, Streptokinase A (Streptococcus pyogenes serotype M1, UniProt P10520); test: viability-normalized secreted streptokinase activity reduction – plasminogen activation absorbance, OD405, dose response (AID 1914); assay type: functional, Streptococcus pyogenes M1 GAS;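 also: secreted streptokinase activity via plasminogen activation per viability signal from cell pellet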
T5 sequence (P10520 whole entry): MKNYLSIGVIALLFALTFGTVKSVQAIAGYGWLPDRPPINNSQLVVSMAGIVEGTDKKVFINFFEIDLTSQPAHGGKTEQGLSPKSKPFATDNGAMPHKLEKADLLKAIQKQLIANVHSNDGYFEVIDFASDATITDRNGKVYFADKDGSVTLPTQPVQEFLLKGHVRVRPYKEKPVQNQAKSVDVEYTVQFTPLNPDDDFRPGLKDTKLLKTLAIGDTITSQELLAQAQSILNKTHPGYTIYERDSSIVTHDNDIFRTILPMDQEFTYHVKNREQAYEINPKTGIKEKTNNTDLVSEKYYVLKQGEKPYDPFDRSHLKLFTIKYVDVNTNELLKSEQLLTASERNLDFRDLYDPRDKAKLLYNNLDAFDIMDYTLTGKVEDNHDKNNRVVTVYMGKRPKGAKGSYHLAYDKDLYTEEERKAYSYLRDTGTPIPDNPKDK

[7] = test system: Streptococcus sp. 'group A'; test: Streptococcus pyogenes SK(-)GAS viability under kanamycin – luminescence, BacTiterGlo, confirmation, counter-screen for streptokinase expression inhibitor project, dose response (AID 1900); assay type: functional, organism-based
Streptococcus = test: GAS UMAA2166 growth inhibition – luminescence, BacTiterGlo, counter-screen for streptokinase expression inhibitor project, dose response (AID 1915); assay type: functional, organism-based;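 also: potency for reduction of bacterial viability or growth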
[8] = molecular target: T6, RNA-binding protein pos-1 (Caenorhabditis elegans, UniProt G5EF15); test: disruptors of C. elegans POS-1 RNA interaction – biochemical, fluorescence polarization, dose response (AID 1964);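 also: purified POS-1 fused to maltose binding protein made in E. coli; potency of compounds blocking POS-1 binding to fluorescent RNA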
T6 sequence (G5EF15 whole entry): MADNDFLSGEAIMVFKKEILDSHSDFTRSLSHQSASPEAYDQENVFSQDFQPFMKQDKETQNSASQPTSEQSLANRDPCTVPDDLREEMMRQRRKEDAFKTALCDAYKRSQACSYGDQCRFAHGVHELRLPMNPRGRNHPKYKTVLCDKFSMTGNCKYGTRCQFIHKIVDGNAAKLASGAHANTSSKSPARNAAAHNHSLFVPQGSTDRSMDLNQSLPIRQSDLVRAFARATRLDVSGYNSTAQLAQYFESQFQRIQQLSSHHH

[9] = molecular target: T7, Zinc finger protein mex-5 (Caenorhabditis elegans, UniProt Q9XUB2); test: potency of MEX-5 RNA-binding blockers – biochemical, C. elegans, fluorescence polarization, dose response (AID 1960)
T7 sequence (Q9XUB2 whole entry): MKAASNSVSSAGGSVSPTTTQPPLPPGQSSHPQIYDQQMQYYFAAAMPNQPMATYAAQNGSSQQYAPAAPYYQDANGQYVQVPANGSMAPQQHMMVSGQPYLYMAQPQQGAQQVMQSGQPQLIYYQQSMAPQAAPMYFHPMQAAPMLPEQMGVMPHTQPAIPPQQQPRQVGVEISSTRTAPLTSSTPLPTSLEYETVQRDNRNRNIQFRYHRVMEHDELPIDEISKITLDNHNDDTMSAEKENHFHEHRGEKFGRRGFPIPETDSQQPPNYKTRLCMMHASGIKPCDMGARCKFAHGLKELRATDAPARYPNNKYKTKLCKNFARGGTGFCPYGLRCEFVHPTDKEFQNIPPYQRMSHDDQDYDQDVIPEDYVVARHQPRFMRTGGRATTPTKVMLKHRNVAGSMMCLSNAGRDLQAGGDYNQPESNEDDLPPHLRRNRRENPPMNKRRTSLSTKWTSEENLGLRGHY

[10] = molecular target: Heat shock protein HSP 90-alpha (Homo sapiens, UniProt P07900); assay type: functional, organism-based
[11] = Luminescence Cell-Based Dose Retest to Confirm Inhibitors of Cancer Stem Cells. [Related pubchem assays (depositor defined):AID2717, AID2721]; assay type: functional; details: Homo sapiens
[12] = NIH3T3 cell viability loss – ATP luminescence, mouse fibroblasts, counter-screen, dose response (AID 2010); assay type: functional, cell-based;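 also: cells exposed to compound for about 90 hours before reading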
[13] = Trypanosoma cruzi growth suppression in host cells – NIH3T3 host cells, beta-gal luminescence, confirmation (AID 2044); assay type: functional, cell-based;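 also: intracellular parasites grown in NIH/3T3 mouse fibroblasts as host cells; luminescent beta-galactosidase reporter signal from transgenic T. cruzi replicating inside host cells; inhibitors lower the luminescence signal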
[14] = viability of uninfected HEp-2 cells – cell-based, HTS, cytotoxicity control for RSV inhibitor project, dose response (AID 2410); assay type: functional; details: human respiratory syncytial virus

## CC1(c2ccc3noc(-c4ccccc4)c3c2)OCCO1
[1]
  IC50: > 100 µM (active)

## COc1cc(/C=N/N=C2/C(=O)Nc3ccccc32)cc(OC)c1O
Large T antigen
  IC50: 12.4 µM (active)
[2]
  IC50: 50.9 µM (active)
[3]
  EC50: > 195 µM (not active)
[4]
  AC50: > 20 µM (inactive)

## Nc1ccc(Nc2ccncc2)cc1
[5]
  AC50: 16.9 µM (active)
[2]
  IC50: 247 µM (active)

## CCCc1cc(O)nc(SCC(=O)Nc2cc3c(cc2C(C)=O)OCO3)n1
[1]
  IC50: > 100 µM (active)

## COc1cc2c(cc1N)-c1ccc(N)cc1C2
[1]
  IC50: > 100 µM (active)
[2]
  IC50: 10.7 µM (active)

## CC1(C)Cc2c(cnn2-c2ccccc2)-c2c1c1ccccc1n2CC(O)CCl (stereo unspecified)
[6]
  CC50: > 40 µM (active)
Streptokinase A
  EC50: 13.7 µM (active)
[7]
  EC50: 8.41 µM (active)
Streptococcus
  EC50: > 150 µM (not active)

## CCc1c(C2CC2)ncn1Cc1cccc(-c2ccccc2)c1
[5]
  AC50: 24.5 µM (active)

## CN(C)c1ccc2nc3ccc(=[N+](C)C)cc-3sc2c1 [METHYLENE BLUE ANHYDROUS]
[5]
  AC50: 0.936 µM (active)
[8]
  EC50: 187 µM (active)
[9]
  EC50: 114 µM (active)

## Cc1cc(N/N=C/c2ccc(O)cc2)c2cccc(C)c2n1
[5]
  AC50: 2.56 µM (active)

## Cc1ccc(Cl)cc1N1CCN(Cc2nc(O)c3sccc3n2)CC1
[6]
  CC50: > 40 µM (active)

## CCCCCOC(=O)c1c(N)n(CCOC)c2nc3ccccc3nc12
[4]
  AC50: 15.7 µM (active)

## Cc1cccc(C)c1N=Nc1c(C)cc(O)cc1C
[10]
  AC50: 8.38 µM (active)
[4]
  AC50: > 20 µM (inactive)
[11]
  AC50: 5.46 µM (active)

## O=C(Oc1ccccc1)c1cc(O)c(O)c(O)c1
[4]
  AC50: 4.01 µM (active)

## CCNC(=O)CC1C(=O)N(c2ccc(C)cc2)C(=O)N1CCc1ccc(OC)c(OC)c1 (stereo unspecified)
[1]
  IC50: > 100 µM (active)

## CCc1ccc2nc(N(CCCN(C)C)C(=O)c3ccc(S(=O)(=O)N4CCCc5ccccc54)cc3)sc2c1
[12]
  EC50: 9.15 µM (active)
[13]
  EC50: 0.187 µM (active)
[14]
  CC50: 12.7 µM (active)
[6]
  CC50: 13.8 µM (active)
[11]
  AC50: 6.44 µM (active)
